As usually defined, the EC50 is the concentration at which the effect is half-maximal. A lower EC50 goes with higher potency in that assay.

The test deals with T1, Smoothened (Smo) (Homo sapiens, UniProt Q99835).
T1 construct: wild-type human Smo overexpressed in C3H10T1/2 cells
In words: BODIPY-cyclopamine competition binding on Smo-expressing cells, flow cytometry. The class given is cell-based.

T1 sequence (Q99835 28-787): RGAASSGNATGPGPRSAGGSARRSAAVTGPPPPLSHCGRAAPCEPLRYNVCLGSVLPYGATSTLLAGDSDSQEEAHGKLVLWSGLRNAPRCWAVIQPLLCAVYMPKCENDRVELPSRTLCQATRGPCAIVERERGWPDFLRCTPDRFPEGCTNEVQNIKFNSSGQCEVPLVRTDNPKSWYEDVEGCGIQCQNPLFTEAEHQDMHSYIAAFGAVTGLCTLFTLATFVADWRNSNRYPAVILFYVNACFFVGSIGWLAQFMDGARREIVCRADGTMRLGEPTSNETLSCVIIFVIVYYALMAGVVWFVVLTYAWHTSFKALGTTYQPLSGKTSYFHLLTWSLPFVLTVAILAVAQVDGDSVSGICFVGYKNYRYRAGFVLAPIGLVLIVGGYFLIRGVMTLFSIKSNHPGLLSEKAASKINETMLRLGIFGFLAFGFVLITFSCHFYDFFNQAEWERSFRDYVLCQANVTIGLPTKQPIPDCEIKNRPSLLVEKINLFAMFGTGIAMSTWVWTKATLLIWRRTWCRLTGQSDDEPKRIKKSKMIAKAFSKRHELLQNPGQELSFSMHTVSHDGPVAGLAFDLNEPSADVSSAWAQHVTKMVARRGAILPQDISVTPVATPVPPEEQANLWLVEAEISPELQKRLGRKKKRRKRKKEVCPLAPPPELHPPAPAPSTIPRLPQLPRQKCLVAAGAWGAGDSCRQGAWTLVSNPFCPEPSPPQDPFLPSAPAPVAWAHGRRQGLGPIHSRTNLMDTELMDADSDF

Take `CC1=C2C[C@H]3[C@@H](CC[C@@H]4C[C@H](NS(C)(=O)=O)CC[C@@]43C)[C@@H]2CC[C@@]2(C1)O[C@@H]1C[C@H](C)CN[C@H]1[C@H]2C` [IPI-926]: it took 1 nM to reach a half-maximal effect (EC50).

The values are drawn from publication PMC3946503, “Impact of the Smoothened Inhibitor, IPI-926, on Smoothened Ciliary Localization and Hedgehog Pathway Activity” (PLoS ONE, 2014).
